Kp data for 1 compound are collected here from PMC8389614, “A Comparison of Acute Pharmacological Effects of Methylone and MDMA Administration in Humans and Oral Fluid Concentrations as Biomarkers of Exposure” (Biology, 2021).

The nature of this series: Oral fluid to blood (OF/B) concentration ratio and plasma concentration. As to conditions: human.

The structures appear in SMILES notation.

By Kp is commonly meant tissue or fluid exposure divided by exposure in the circulation. As for `CNC(C)C(=O)c1ccc(C)cc1` (stereo not shown) [mephedrone, 4-methylmethcathinone], the partition ratio (Kp) by setting is: (oral, 200 mg) 22.3; (po, 100 mg) 49.4; (po, 150 mg) 4.28; (po, 200 mg) 11.7.
